# Where two headings read alike, the source gives them in different places.
# Key:
# [1] = system: MDA-MB-231 cells; experiment: Cell survival after siRNA-BAD or scrambled control and NCK; assay type: cell-based, human
# Excerpt: To confirm the functional specificity of NCK to BAD, the effect of NCK treatment after siRNA-mediated depletion of BAD expression was examined in MDA-MB-231 cells. […] Consistent with previous findings[32]–[34], no significant changes in cell viability nor CASPASE 3/7 activity were observed upon transfection of siRNA directed to the BAD transcript (Fig. 2g–i).
# [2] = system: BT549 cells; experiment: AlamarBlue cell viability, 3D Matrigel culture; assay type: cell-based, human
# [3] = system: BT549 cells; experiment: Total cell number assay, 2D culture; assay type: cell-based, human
# Method: (§1) Fold difference was calculated. Data represent means ± SD (n = 3).
# [4] = system: MDA-MB-231 cells; experiment: Total cell number assay, 2D culture; assay type: cell-based, human
# Method: as §1
# [5] = Pharmacokinetics after IV and oral administration; assay type: in vivo, Sprague-Dawley (SD) rats; design: AUClast/D: unit not given here; details: SD rats; for MRT inf: read-out: MRTInf_obs
# Method: The pharmacokinetics of NCK were determined via intravenous (IV) and oral administration in Sprague-Dawley (SD) rats (Supplementary Fig. 7).
# Supplementary Figure 7: (A) Plasma concentration of NCK after intravenous (IV, 1 mg/kg) (red) or oral (PO, 10 mg/kg) (blue) administration in SD rats. Results represent the mean ± SD of three animals. (B) Pharmacokinetic parameters of NCK in plasma after IV injection (1 mg/kg) or oral administration (10 mg/kg). AUCinf: Area Under the Plasma Concentration-Time Curve from t=0 to infinity; AUClast: Area Under the Plasma Concentration-Time Curve from t=0 to last measurable positive concentration; AUC_%Extrap_obs: Percent Extrapolated AUC from tlast to infinity; C0: Initial concentration in plasma; Cmax: Peak concentration in plasma; Cl_obs:
# Plasma systemic clearance; F: Absolute oral bioavailability; MRTInf_obs: Mean residence time from t=0 to infinity ;T1/2: Elimination half- life; Tmax: Time of peak concentration in plasma; Vss_obs: Volume of Distribution at Steady- state
# [6] = system: 4T1-luciferase cells
# Method: Since metastasis is the primary contributor to mortality and poor prognosis for TNBC patients, the therapeutic potential of NCK, TKIs or combined NCK-TKI treatment on TNBC metastasis was further evaluated with an experimental lung metastasis model.
# In vivo bioluminescent imaging was performed to determine the incidence and metastatic burden of luciferase-labeled 4T1 cells. Mice were injected i.p. with 10 mg/ml of D-luciferin (Gold Biotechnology, MO, USA) and imaged using a PerkinElmer IVIS Spectrum system. PDX were generated as previously described by transplanting fresh fragments orthotopically into 8-week-old female nonobese diabetic (NOD)/severe combined immunodeficient (SCID) mice (Beijing Vital River Laboratory Animal Technology Co., Beijing, China) (P1, passage 1)[40]. The P1 xenografts were then fragmented, digested into single-cell suspension and implanted into mammary fat pad (100 μL PBS containing growth factor reduced 50% Matrigel) of NOD/SCID mice. Once orthotopic xenografts reached an approximate size of 100 mm^3, the mice were randomly divided into three groups (n = 8) for single drug studies and six groups (n = 6) for combination studies and Kaplan-Meier (KM) analyses. […] Animal body weight and xenograft size were measured daily using an electronic balance and a digital caliper, respectively. Xenograft volume (mm^3) was calculated by using the formula: 0.52 × length × [width]^2. Complete response (CR) was achieved if the average xenograft volume for the treatment group was unable to be determined for two or more consecutive measurements. Partial response (PR) was achieved if the average xenograft volume reduced to <50 mm^3 for two or more consecutive measurements. After 3-week drug treatment, all mice were sacrificed by CO2 inhalation. Tumor and vital organs were weighed and isolated for further analysis. IHC analysis of xenograft histology sections and quantitative polymerase chain reaction (qPCR) were performed as previously described. […] For PDX, xenograft growth was monitored daily by measurement of the xenograft volume until mice humane endpoint ( ~ 1000 mm^3).
# luciferase cell generated metastasis model. Scale bar, 20 µm. (C) Animal weight of each
# treatment group was indicated. (D) Changes in relative lung, liver, spleen, heart and kidney
# (CRI) or combinations during the study at day 9.
# [7] = system: BAD phosphorylation at Ser75 and Ser118; experiment: Western blot of BAD phosphorylation at Ser75 and Ser118 in TNBC cells; assay type: cell-based, human; details: MDA-MB-231 and BT549 cells
# Method: To compare the binding affinity of NCK and NPB towards BAD, we performed surface plasmon resonance (SPR) measurement by immobilizing BAD protein on a sensor chip with NCK or NPB as analyte. Representative reference-subtracted overlaid sensorgrams and the kinetic parameters are specified in Fig. 2d and Supplementary Fig. 6A. […] Additionally, the pharmacological inhibition of BAD phosphorylation by NCK or NPB in TNBC cells was evaluated. […] Furthermore, the comparative potencies of NPB and NCK were evaluated in eight TNBC cell lines using total cell number assay in 2D culture and cell viability in 3D culture (Supplementary Fig. 6C, D).
# [8] = system: MDA-MB-231 cells; experiment: Cambridge cancer compound library screen in combination with NCK; assay type: cell-based, human; details: compound at IC25 with NCK 0.1, 1, 10 μM, 72 h, AlamarBlue
# Method: Cancer compound library screening was performed using IC25 values of anti-cancer compounds (predicted with Genomics of Drug Sensitivity in Cancer (https://www.cancerrxgene.org/) and NCK at 3-point dilutions (0.1, 1, 10 μM) in medium containing 2% FBS to identify potential synergistic combinations. In detail, MDA-MB-231 cells (5 ×10^3) were seeded in 96-well plates in 80 μl of culture medium (2% FBS) and allowed to settle overnight. 24-hour post-seeding, 10 μl of compounds dissolved in culture medium were prepared and added to the plates to reach a final concentration of IC25 of the respective compound. 10 μl of NCK was also added into cell plates to yield a final concentration of 0.1, 1 or 10 μM. After 72-hours of treatment, cell viability was determined with AlamarBlue reagent and fluorescence was measured using a Tecan microplate reader, as previously described[29].
# [9] = system: CSF-1R; design: method as in SelleckChem; details: ref SelleckChem; cited from earlier work
# [10] = system: Flt1; design: method as in SelleckChem; details: ref SelleckChem; cited from earlier work
# [11] = system: LCK; design: method as in SelleckChem; details: ref SelleckChem; cited from earlier work
# [12] = Sprague-Dawley, rat, plasma, IV 1 mg/kg
# [13] = Sprague-Dawley, rat, plasma, PO 10 mg/kg
# [14] = BALB/c mice, day 9, NCK 20 mg/kg, OSI 50 mg/kg, CRI 50 mg/kg
smiles,measurement,setting,value
"Oc1ccccc1C(c1cccnc1)N1CCN(c2cccc(Cl)c2Cl)CC1 (centres unmarked) [NCK, 2-((4-(2,3-dichlorophenyl)piperazin-1-yl)(pyridin-3-yl)methyl) phenol]",cell viability vs vehicle,"[1]; MDA-MB-231, 5 μM NCK",decreased cell viability
same,effect on cell viability and CASPASE 3/7 activity after siRNA-mediated depletion of BAD,"[1]; MDA-MB-231, siRNA-BAD, 5 μM NCK",abolished the effect of NCK
same,growth in 3D Matrigel,"[2]; BT549, 5 μM each",reduced cell growth in 3D Matrigel
same,fold IC50 difference NCK vs NPB,"[2]; BT549, 3D Matrigel",~ 8 fold
same,IC50,"[2]; Homo sapiens, BT-549, BT549, 3D Matrigel, AlamarBlue",309 nM
same,fold IC50 difference NCK vs NPB,"[3]; BT549, 2D",~ 2 fold
same,IC50,"[3]; Homo sapiens, BT-549, BT549, 2% FBS",1700 nM
same,IC50,"[4]; Homo sapiens, MDA-MB-231, 2% FBS",1010 nM
same,fold IC50 difference NCK vs NPB,"[4]; MDA-MB-231, 2D",~ 3 fold
same,AUC_%Extrap_obs,[5]; IV 1 mg/kg,2.51%
same,AUClast/D,[5]; IV 1 mg/kg,280
same,Vss_obs,[5]; IV 1 mg/kg,5.93 L/kg
same,AUC_%Extrap_obs,[5]; PO 10 mg/kg,2.14%
same,AUClast/D,[5]; PO 10 mg/kg,105
same,AUC(0-inf),[5]; [12],288 ng·h/mL
same,AUC(0-t),[5]; [12],280 ng·h/mL
same,C0,[5]; [12],554 ng/mL
same,half-life,[5]; [12],3.35 h
same,MRT inf,[5]; [12],1.72 h
same,bioavailability,"[5]; Sprague-Dawley, rat, plasma, PO 10 mg/kg vs IV 1 mg/kg, read-out: F (absolute oral bioavailability)",37.2%
same,AUC(0-inf),[5]; [13],1070 ng·h/mL
same,AUC(0-t),[5]; [13],1050 ng·h/mL
same,Cmax,[5]; [13],346 ng/mL
same,Tmax,[5]; [13],0.33 h
same,half-life,[5]; [13],2.68 h
same,MRT inf,[5]; [13],4 h
same,clearance,"[5]; Sprague-Dawley, rat, IV 1 mg/kg, plasma, read-out: Cl_obs (clearance)",58.3 mL/min/kg
same,lung metastases (bioluminescent signals) vs control,[6]; 4T1-luciferase metastasis model,significantly abrogated lung metastases
same,Relative Heart Weight,[6]; [14],0.51±0.07%
same,Relative Kidney Weight,[6]; [14],1.40±0.07%
same,Relative Liver Weight,[6]; [14],4.55±0.21%
same,Relative Lung Weight,[6]; [14],1.70±0.49%
same,Relative Spleen Weight,[6]; [14],1.54±0.54%
same,levels of pBADSer75/BAD and pBADSer118/BAD,[7],did not alter
O=C(Nc1ccc(OC(F)(F)F)cc1)c1sccc1NCc1ccnc2ccccc12 [OSI-930],"synergy with NCK in compound library screen (CI, Bliss independence)",[8],low CI (high synergy)
same,IC50,[9],15 nM
same,IC50,[10],8 nM
same,IC50,[11],22 nM

# Source: paper PMC10781691, “Vertical pathway inhibition of receptor tyrosine kinases and BAD with synergistic efficacy in triple negative breast cancer” (NPJ Precision Oncology, 2024)
